Consider 6 molecules from ChEMBL document CHEMBL1781953, “Synthesis and antimycobacterial activity of 5-formylaminopyrimidines; analogs of antibacterial purines” (Bioorg Med Chem Lett, 2009).

In general, MIC refers to the lowest concentration found to suppress growth. The term EC50 denotes the midpoint of the concentration-response curve. Usually IC50 stands for the concentration that inhibits the measured activity by half. As a reminder, the IC90 is the point of the concentration-response curve where the effect stands at 90%.

Values after ≈ are worked out from the molar mass of the structure shown.

In one data set the test system is Staphylococcus aureus. Kind of data set: Antibacterial activity against Staphylococcus aureus. The format is functional.
For a further data set, the system named is Escherichia coli. Kind of data set: Antibacterial activity against Escherichia coli. The format is functional.
Data set [1] can be described thus: Cytotoxicity against african green monkey Vero cells assessed as cell viability at 40 ug/mL after 72 hrs by MTT assay. To be noted: chlorocebus sabaeus, read-out: Activity. Format: cell-based. Background: Tetrazolium dyes change colour on reduction, which living cells bring about.
The subject of the next data set is Vero. Kind of data set: Cytotoxicity against african green monkey Vero cells after 72 hrs by MTT assay. The format is cell-based. To be noted: Chlorocebus sabaeus.
For data set [2], the system named is Mycobacterium tuberculosis. Put plainly: Antimycobacterial activity against Mycobacterium tuberculosis H37Rv ATCC 27294 by microplate alamar blue assay. Format: functional, organism-based. (In general: Resazurin is reduced to fluorescent resorufin, in cell work by metabolically active cells.)

In the data set with Staphylococcus aureus, GENTAMICIN returned an MIC of 0.1 µg/mL.
Turning to `COc1ccc(CNc2nc(F)nc(-c3ccco3)c2NC=O)cc1`, the minimal inhibitory concentration (MIC) against Staphylococcus aureus and against Escherichia coli was above 64 µg/mL in each case.
In the case of `COc1ccc(CNc2ncnc(-c3ccco3)c2NC=O)cc1`, the MIC in the data set with Staphylococcus aureus and with Escherichia coli was above 64 µg/mL in each case.
Take `COc1ccc(CNc2nc(Cl)nc(-c3ccco3)c2NC=O)cc1`: the MIC with Staphylococcus aureus and against Escherichia coli was above 64 µg/mL each time.
Turning to `COc1ccc(CNc2nc([N+](=O)[O-])nc(-c3ccco3)c2NC=O)cc1`, the MIC in the data set on Staphylococcus aureus and against Escherichia coli was above 64 µg/mL each time. Besides, the viability at 72 h, 40 ug/mL in data set [1] came out at 62%. The same molecule had an EC50 in the data set with Vero above 40 µg/mL.
Regarding `COc1ccc(CNc2nc(C(F)(F)F)nc(-c3ccco3)c2NC=O)cc1`, in data set [2], the IC50 was determined as 0.26 µg/mL (≈ 0.663 µM) and it took 0.58 µg/mL (≈ 1.48 µM) to reach the 90% level (IC90).
